SMILES strings stand for the structures. Like-named read-outs stand apart in the source and are kept apart here.

In this assay the test system is test plant species. Description: Post-emergent herbicidal activity test (greenhouse, foliar spray, visual growth reduction). Type of assay: in vivo. To be noted: post-emergence, 336 h, 140 g ai/ha, 14 days after application. The procedure, abridged: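 Seedlings were raised 7-21 d in a greenhouse under a 15 h photoperiod until the first or second true leaf. Each compound, dissolved in acetone:DMSO 97:3 and diluted into a surfactant-containing spray mixture, was then applied at 187 L/ha. Plants were subirrigated, and growth reduction was scored visually at 14 d.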

Where [1] appears, read: ALOMY: blackgrass (Alopecurus myosuroides), read-out: Visual Growth Reduction (%) 14 Days After Application, ALOMY.
Setting [2] is: AMARE: redroot pigweed (Amaranthus retroflexus), read-out: Visual Growth Reduction (%) 14 Days After Application, AMARE.
The mark [3] stands for this setting: AVEFA: wild oat (Avena fatua), read-out: Visual Growth Reduction (%) 14 Days After Application, AVEFA.
Setting [4] is: CHEAL: lambsquarters (Chenopodium album), read-out: Visual Growth Reduction (%) 14 Days After Application, CHEAL.
Where [5] appears, read: CIRAR: canada thistle (Cirsium arvense), read-out: Visual Growth Reduction (%) 14 Days After Application, CIRAR.
The mark [6] stands for this setting: CYPES: yellow nutsedge (Cyperus esculentus), read-out: Visual Growth Reduction (%) 14 Days After Application, CYPES.
[7] abbreviates: DIGSA: crabgrass (Digitaria sanguinalis), read-out: Visual Growth Reduction (%) 14 Days After Application, DIGSA.
Setting [8] is: ECHCG: barnyardgrass (Echinochloa crus-galli), read-out: Visual Growth Reduction (%) 14 Days After Application, ECHCG.
Where [9] appears, read: IPOHE: ivy-leaf morning glory (Ipomoea hederacea), read-out: Visual Growth Reduction (%) 14 Days After Application, IPOHE.
The mark [10] stands for this setting: KCHSC: kochia (Bassia scoparia), read-out: Visual Growth Reduction (%) 14 Days After Application, KCHSC.
Setting [11] is: ORYSA: rice (Oryza sativa), read-out: Visual Growth Reduction (%) 14 Days After Application, ORYSA.
The mark [12] stands for this setting: SETFA: giant foxtail (Setaria faberi), read-out: Visual Growth Reduction (%) 14 Days After Application, SETFA.
The mark [13] stands for this setting: SORVU: grain sorghum (Sorghum vulgare), read-out: Visual Growth Reduction (%) 14 Days After Application, SORVU.
[14] abbreviates: STEME: common chickweed (Stellaria media), read-out: Visual Growth Reduction (%) 14 Days After Application, STEME.
Where [15] appears, read: TRZAS: wheat, spring (Triticum aestivum), read-out: Visual Growth Reduction (%) 14 Days After Application, TRZAS.

Consider `COC(=O)c1nc(-c2ccc(C(F)(F)F)c(S(C)(=O)=O)c2Cl)ccc1Cl` [F139, methyl 3-chloro-6-(2-chloro-3-(methylsulfonyl)-4-(trifluoromethyl)phenyl)picolinate], for which the pest or weed control at 140 g/ha was in the range of 0 to 29% under setting [1]; 0 to 29% under setting [2]; 0 to 29% under setting [3]; 0 to 29% under setting [4]; 0 to 29% under setting [5]; 30 to 44% under setting [6]. The pest or weed control at 140 g/ha under setting [7] fell in the range of 0 to 29%; the pest or weed control at 140 g/ha under setting [8] lay within 0 to 29%; the pest or weed control at 140 g/ha under setting [9] lay in the range of 0 to 29%; the pest or weed control at 140 g/ha under setting [10] lay in the range of 0 to 29%; the pest or weed control at 140 g/ha under setting [11] lay within 0 to 29%; the pest or weed control at 140 g/ha under setting [12] was in the range of 0 to 29%. In addition, the pest or weed control at 140 g/ha is, setting by setting: under setting [13], 0 to 29%; under setting [14], 0 to 29%; under setting [15], 0 to 29%.
On to `COC(=O)c1nc(-c2ccc(C(F)(F)F)c(Br)c2Cl)ccc1Cl` [F140, methyl 6-(3-bromo-2-chloro-4-(trifluoromethyl)phenyl)-3-chloropicolinate], for which the pest or weed control at 140 g/ha was 0 to 29% under setting [1]; 85 to 94% under setting [2]; 0 to 29% under setting [3]; 85 to 94% under setting [4]; 45 to 59% under setting [5]; 0 to 29% under setting [6]. For the same compound, the pest or weed control at 140 g/ha reads like this: under setting [7], 85 to 94%; under setting [8], 0 to 29%; under setting [9], 95 to 100%; under setting [10], 0 to 29%; under setting [11], 0 to 29%; under setting [12], 75 to 84%. Besides, the pest or weed control at 140 g/ha runs as follows: under setting [13], 85 to 94%; under setting [14], 0 to 29%; under setting [15], 0 to 29%.
Turning to `CO/N=C/c1c(C(F)(F)F)ccc(-c2ccc(Cl)c(C(=O)OC)n2)c1Cl` [F141, Methyl (E)-3-chloro-6-(2-chloro-3-((methoxyimino)methyl)-4-(trifluoromethyl)phenyl)picolinate], the pest or weed control at 140 g/ha lay within 0 to 29% under setting [1]; 75 to 84% under setting [2]; 0 to 29% under setting [3]; 0 to 29% under setting [4]; 0 to 29% under setting [5]; 0 to 29% under setting [6]. For the same compound, the pest or weed control at 140 g/ha by setting is: under setting [7], 60 to 74%; under setting [8], 0 to 29%; under setting [9], 0 to 29%; under setting [10], 60 to 74%; under setting [11], 0 to 29%; under setting [12], 0 to 29%. The pest or weed control at 140 g/ha was 0 to 29% under setting [13], 0 to 29% under setting [14] and 0 to 29% under setting [15].
For the compound `COC(=O)c1nc(-c2ccc(C(F)(F)F)c(/C=N/N(C)C)c2Cl)ccc1Cl` [F142, Methyl (E)-3-chloro-6-(2-chloro-3-((2,2-dimethylhydrazono)methyl)-4-(trifluoromethyl)phenyl)picolinate], the pest or weed control at 140 g/ha lay in the range of 0 to 29% under setting [1]; 60 to 74% under setting [2]; 0 to 29% under setting [3]; 30 to 44% under setting [4]; 0 to 29% under setting [5]; 0 to 29% under setting [6]. Further, the pest or weed control at 140 g/ha under setting [7] was 0 to 29%; the pest or weed control at 140 g/ha under setting [8] was in the range of 0 to 29%; the pest or weed control at 140 g/ha under setting [9] is 60 to 74%; the pest or weed control at 140 g/ha under setting [10] was 0 to 29%; the pest or weed control at 140 g/ha under setting [11] was 0 to 29%; the pest or weed control at 140 g/ha under setting [12] fell in the range of 0 to 29%. Further, the pest or weed control at 140 g/ha is 60 to 74% under setting [13], 0 to 29% under setting [14] and 0 to 29% under setting [15].
For the compound `COC(=O)c1nc(-c2ccc(C(F)(F)F)c(C#N)c2Cl)ccc1Cl` [F143, methyl 3-chloro-6-(2-chloro-3-cyano-4-(trifluoromethyl)phenyl)picolinate], the pest or weed control at 140 g/ha lay within 0 to 29% under setting [1]; 45 to 59% under setting [2]; 0 to 29% under setting [3]; 30 to 44% under setting [4]; 0 to 29% under setting [5]; 0 to 29% under setting [6]. The pest or weed control at 140 g/ha under setting [7] was in the range of 75 to 84%; the pest or weed control at 140 g/ha under setting [8] lay in the range of 0 to 29%; the pest or weed control at 140 g/ha under setting [9] was in the range of 75 to 84%; the pest or weed control at 140 g/ha under setting [10] was in the range of 0 to 29%; the pest or weed control at 140 g/ha under setting [11] was in the range of 0 to 29%; the pest or weed control at 140 g/ha under setting [12] was in the range of 0 to 29%. The pest or weed control at 140 g/ha lay within 60 to 74% under setting [13], 0 to 29% under setting [14] and 0 to 29% under setting [15].
In the case of `COC(=O)c1nc(-c2cc3c(cc2Cl)OCO3)ccc1Cl` [F144, Methyl 3-chloro-6-(6-chlorobenzo[d] [1,3]dioxol-5-yl) picolinate], the pest or weed control at 140 g/ha lay within 0 to 29% under setting [1]; 45 to 59% under setting [2]; 0 to 29% under setting [3]; 75 to 84% under setting [4]; 0 to 29% under setting [5]; 0 to 29% under setting [6]. The pest or weed control at 140 g/ha was in the range of 0 to 29% under setting [7]; 0 to 29% under setting [8]; 75 to 84% under setting [9]; 0 to 29% under setting [10]; 0 to 29% under setting [11]; 0 to 29% under setting [12]. For the same compound, the pest or weed control at 140 g/ha runs as follows: under setting [13], 0 to 29%; under setting [14], 0 to 29%; under setting [15], 0 to 29%.
As for `COC(=O)c1nc(-c2ccc(C(F)(F)F)cc2C(N)=O)ccc1Cl` [F146, Methyl 6-(2-carbamoyl-4-(trifluoromethyl)phenyl)-3-chloropicolinate], the pest or weed control at 140 g/ha runs as follows: under setting [1], 0 to 29%; under setting [2], 0 to 29%; under setting [3], 0 to 29%; under setting [4], 0 to 29%; under setting [5], 0 to 29%; under setting [6], 0 to 29%. Besides, the pest or weed control at 140 g/ha reads like this: under setting [7], 0 to 29%; under setting [8], 0 to 29%; under setting [9], 30 to 44%; under setting [10], 0 to 29%; under setting [11], 0 to 29%; under setting [12], 0 to 29%. The pest or weed control at 140 g/ha by setting is: under setting [13], 0 to 29%; under setting [14], 0 to 29%; under setting [15], 0 to 29%.
Regarding `COC(=O)c1nc(-c2ccc(C(F)(F)F)cc2C(N)=O)c(Cl)cc1Cl` [F147, Methyl 6-(2-carbamoyl-4-(trifluoromethyl)phenyl)-3,5-dichloropicolinate], the pest or weed control at 140 g/ha is 0 to 29% under setting [1]; 45 to 59% under setting [2]; 0 to 29% under setting [3]; 30 to 44% under setting [4]; 0 to 29% under setting [5]; 0 to 29% under setting [6]. For the same compound, the pest or weed control at 140 g/ha reads like this: under setting [7], 0 to 29%; under setting [8], 0 to 29%; under setting [9], 30 to 44%; under setting [10], 0 to 29%; under setting [11], 0 to 29%; under setting [12], 0 to 29%. The pest or weed control at 140 g/ha is, setting by setting: under setting [13], 0 to 29%; under setting [14], 0 to 29%; under setting [15], 0 to 29%.

Source of the values: patent US20230017045A1, “PYRIDINE AND PYRIMIDINE CARBOXYLATE HERBICIDES AND METHODS OF USE THEREOF” (Dow AgroSciences LLC, priority 2017, published 2023).
